Reference: US6846492B2, “Use of phenylethylamine derivatives for the antimicrobial treatment of surfaces” (Ciba Specialty Chemicals Corporation, priority 2000, dated 2005)
Converted amounts (≈) assume the structure as drawn.

Key:
Format in all cases: cell-based
[1] = system: Candida albicans ATCC 10231 (= CA); assay: MIC determination in microtiter plates, Candida albicans; details: 48 hours at 37° C.; for MIC [ppm] CA: Tables 2a/2b, ≦20% growth, optical density 620 nm, some approximate values
Protocol: (§1) Determination of the Minimum Inhibitory Concentration (MIC Value) in Microtiter Plates
(§2) Casein/soybean flour peptone bouillon for the preparation of pre-cultures of the test bacteria and yeast.
(§3) Mycological slant agar for the pre-culture of moulds
(§4) The test substances are pre-dissolved in dimethyl sulfoxide (DMSO) and tested in a dilution series of 1:2.
(§5) Bacteria and yeast are cultured overnight in CASO bouillon, the mould is cultured overnight on mycological slant agar, and washed off with 10 ml of 0.85% sodium chloride solution (+0.1% TritonX-100).
(§6) All the test organisms are adjusted to an organism count of 1−5×10^6 CFU/ml using 0.85% sodium chloride solution.
(§7) The test substances are pre-pipetted into microtiter plates in an amount of 8 μl per well.
(§8) Pre-diluted organism suspensions are diluted 1:100 in CASO bouillon (bacteria and yeast) or Sabouraud 2% glucose bouillon (mould) and are added in an amount of 192 μl per well to the test substances.
(§9) The test batches are incubated for 48 hours at 37° C. (bacteria and yeast) or for 5 days at 28° C. (mould).
(§10) After incubation, the growth is evaluated by reference to the turbidity of the test batches (optical density) at 620 nm in a microplate reader.
(§11) One microtiter plate is used for each test organism and substance concentration. All the substances are tested in duplicate.

[2] = system: Escherichia coli NCTC 8196 (= EC); assay: MIC determination in microtiter plates, Escherichia coli; details: Tables 2a/2b, 48 hours at 37° C., ≦20% growth, optical density 620 nm, some approximate values
Protocol: as §1, §2, §3, §4, §5, §6, §7, §8, §9, §10, §11

[3] = system: Aspergillus niger ATCC 6275 (= AN); assay: MIC determination in microtiter plates, Aspergillus niger; details: 5 days at 28° C.; for MIC [ppm] AN: Tables 2a/2b, ≦20% growth, optical density 620 nm, some approximate values
Protocol: as §1, §2, §3, §4, §5, §6, §7, §8, §9, §10, §11

[4] = system: Staphylococcus hominis DMS 20328 (= SH); assay: MIC determination in microtiter plates, Staphylococcus hominis; details: 48 hours at 37° C.; for MIC [ppm] SH: Tables 2a/2b, ≦20% growth, optical density 620 nm, tested at 120, 60, 30, 15, 7.5 and 3.5 ppm, some approximate
Protocol: as §1, §2, §3, §4, §5, §6, §7, §8, §9, §10, §11

[5] = system: Pseudomonas aeruginosa CIP A-22 (= PA); assay: MIC determination in microtiter plates, Pseudomonas aeruginosa; details: Tables 2a/2b, 48 hours at 37° C., ≦20% growth, optical density 620 nm, some approximate values
Protocol: as §1, §2, §3, §4, §5, §6, §7, §8, §9, §10, §11

[6] = system: Streptococcus mutans ATCC 25175; assay: MIC determination in microtiter plates, Streptococcus mutans; details: ATCC25175, Table 2c, 48 hours at 37° C., read-out: MIC [ppm] Streptococcus mutans ATCC 25175
Protocol: as §1, §2, §3, §4, §5, §6, §7, §8, §9, §10, §11

[7] = system: Porphyromonas gingivalis DSM 20709; assay: MIC determination in microtiter plates, Porphyromonas gingivalis; details: DSM20709, Table 2c, 48 hours at 37° C., read-out: MIC [ppm] Porphyromonas gingivalis DSM 20709
Protocol: as §1, §2, §3, §4, §5, §6, §7, §8, §9, §10, §11

[8] = system: Streptococcus sobrinus DSM 20742; assay: MIC determination in microtiter plates, Streptococcus sobrinus; details: DSM20742, Table 2c, 48 hours at 37° C., read-out: MIC [ppm] Streptococcus sobrinus DSM 20742
Protocol: as §1, §2, §3, §4, §5, §6, §7, §8, §9, §10, §11

[9] = system: Staphylococcus aureus ATCC 9144; assay: MIC determination in microtiter plates, Staphylococcus aureus; details: ATCC9144, Table 2c, 48 hours at 37° C., read-out: MIC [ppm] Staphylococcus aureus ATCC 9144
Protocol: as §1, §2, §3, §4, §5, §6, §7, §8, §9, §10, §11

[10] = system: Epidermophyton floccosum DSM 10709; assay: MIC determination in microtiter plates, Epidermophyton floccosum; details: DSM10709, 120 h, Table 2c, 5 days at 28° C., read-out: MIC [ppm] Epidermophyton floccosum DSM 10709
Protocol: as §1, §2, §3, §4, §5, §6, §7, §8, §9, §10, §11

[11] = system: Enterococcus hirae ATCC 10541; assay: MIC determination in microtiter plates, Enterococcus hirae; details: ATCC10541, Table 2c, 48 hours at 37° C., read-out: MIC [ppm] Enterococcus hirae ATCC 10541
Protocol: as §1, §2, §3, §4, §5, §6, §7, §8, §9, §10, §11

[12] = system: Staphylococcus epidermidis ATCC 12228; assay: MIC determination in microtiter plates, Staphylococcus epidermidis; details: ATCC12228, Table 2c, 48 hours at 37° C., read-out: MIC [ppm] Staphylococcus epidermidis ATCC 12228
Protocol: as §1, §2, §3, §4, §5, §6, §7, §8, §9, §10, §11

[13] = system: Actinomyces viscosum DSM 43329; assay: MIC determination in microtiter plates, Actinomyces viscosum; details: DSM43329, Table 2c, 48 hours at 37° C., read-out: MIC [ppm] Actinomyces viscosum DSM 43329
Protocol: as §1, §2, §3, §4, §5, §6, §7, §8, §9, §10, §11

[14] = system: Corynebacterium xerosis ATCC 373; assay: MIC determination in microtiter plates, Corynebacterium xerosis; details: ATCC373, Table 2c, 48 hours at 37° C., read-out: MIC [ppm] Corynebacterium xerosis ATCC 373
Protocol: as §1, §2, §3, §4, §5, §6, §7, §8, §9, §10, §11

[15] = system: Propionibacterium acnes ATCC11829; assay: MIC determination in microtiter plates, Propionibacterium acnes; details: Cutibacterium acnes, ATCC11829; Table 2c; 48 hours at 37° C.; read-out: MIC [ppm] Propionibacterium acnes ATCC11829
Protocol: as §1, §2, §3, §4, §5, §6, §7, §8, §9, §10, §11

Row | Compound | MIC [ppm] CA [1] [ppm] | MIC [ppm] EC [2] | MIC [ppm] AN [3] [ppm] | MIC [ppm] SH [4] [ppm] | MIC [ppm] PA [5] [ppm] | other results
1 | CCOC(=O)COc1cc(CCN)cc(OCC(=O)OCC)c1OCC(=O)OCC [Compound 73] | >120 | >120 ppm | >120 | >120 | >120 | –
2 | CCCOC(=O)COc1cc(CCN)cc(OCC(=O)OCCC)c1OCC(=O)OCCC [Compound 74] | >120 | >120 ppm | >120 | >120 | >120 | –
3 | CC(C)OC(=O)COc1cc(CCN)cc(OCC(=O)OC(C)C)c1OCC(=O)OC(C)C [Compound 75] | >120 | >120 ppm | >120 | 60 | >120 | –
4 | NCCc1cc(OCC(=O)OCc2ccccc2)c(OCC(=O)OCc2ccccc2)c(OCC(=O)OCc2ccccc2)c1 [Compound 77] | >120 | >120 ppm | >120 | 120 | >120 | –
5 | CCOC(=O)CCCOc1cc(CCN)cc(OCCCC(=O)OCC)c1OCCCC(=O)OCC [Compound 78] | >120 | >120 ppm | >120 | >120 | >120 | –
6 | CCOC(=O)CCCCOc1cc(CCN)cc(OCCCCC(=O)OCC)c1OCCCCC(=O)OCC [Compound 79] | >120 | >120 ppm | 120 | >120 | >120 | –
7 | CCCOc1cc(CCN)cc(OCCC)c1OCCC [Compound 80] | >120 | 120 ppm | 120 | 120 | >120 | –
8 | CCCCOc1cc(CCN)cc(OCCCC)c1OCCCC [Compound 81] | 30 | 7,5 ppm | >120 | 15 | 120 | –
9 | CC(C)Oc1cc(CCN)cc(OC(C)C)c1OC(C)C [Compound 82] | >120 | >120 ppm | >120 | >120 | >120 | –
10 | CCC(C)Oc1cc(CCN)cc(OC(C)CC)c1OC(C)CC (centres unmarked) [Compound 83] | 120 | 30 ppm | >120 | >120 | >120 | –
11 | CC(C)CCOc1cc(CCN)cc(OCCC(C)C)c1OCCC(C)C [Compound 84] | 15 | 7.5 ppm | 15 | 3.75 | >120 | –
12 | CCC(CC)Oc1cc(CCN)cc(OC(CC)CC)c1OC(CC)CC [Compound 86] | 60 | 15 ppm | 30 | 7.5 | >120 | –
13 | NCCc1cc(OC2CCCC2)c(OC2CCCC2)c(OC2CCCC2)c1 [Compound 92] | 60 | 15 ppm | 120 | 15 | >120 | –
14 | C=CCCOc1cc(CCN)cc(OCCC=C)c1OCCC=C [Compound 94] | 120 | 60 ppm | >120 | 60 | >120 | –
15 | NCCc1cc(OCC(=O)c2ccccc2)c(OCC(=O)c2ccccc2)c(OCC(=O)c2ccccc2)c1 [Compound 97] | >120 | >120 ppm | >120 | >120 | >120 | –
16 | Cc1ccc(C(=O)COc2cc(CCN)cc(OCC(=O)c3ccc(C)cc3)c2OCC(=O)c2ccc(C)cc2)cc1 [Compound 98] | >120 | 30 ppm | >120 | 30 | >120 | –
17 | NCCc1cc(OCC(=O)c2ccc(F)cc2)c(OCC(=O)c2ccc(F)cc2)c(OCC(=O)c2ccc(F)cc2)c1 [Compound 99] | >120 | 60 ppm | >120 | 60 | >120 | –
18 | CCCCCCCCCCCCOc1ccc(CCN)cc1OC [Compound 100, 1-Amino-2-(4-dodecyloxy-3-methoxyphenyl)ethane] | – | – | – | – | – | MIC ([1]; ATCC10231, Table 2c, read-out: MIC [ppm] Candida albicans ATC 10231): 2 µg/mL (≈ 5.96 µM); MIC [6]: 6 µg/mL (≈ 17.9 µM); MIC [7]: 25 µg/mL (≈ 74.5 µM); MIC [8]: 6 µg/mL (≈ 17.9 µM); MIC [9]: 25 µg/mL (≈ 74.5 µM); MIC [10]: 3 µg/mL (≈ 8.94 µM); MIC [11]: 25 µg/mL (≈ 74.5 µM); MIC [12]: 13 µg/mL (≈ 38.7 µM); MIC ([3]; ATCC6275, 120 h, Table 2c, read-out: MIC [ppm] Aspergillus niger ATCC 6275): 2 µg/mL (≈ 5.96 µM); MIC [13]: 25 µg/mL (≈ 74.5 µM); MIC [14]: 6 µg/mL (≈ 17.9 µM); MIC ([4]; DSM20328, Table 2c, read-out: MIC [ppm] Staphylococcus hominis DSM 20328): 2 µg/mL (≈ 5.96 µM); MIC [15]: 50 µg/mL (≈ 149 µM)
